Assay results reported in patent US7094759B2, “Oral modified SSP-5 antibacterial composition” (GC Corporation, priority 2003, dated 2006).

Columns and labels:
Experiment in all cases: Adhesion suppressing properties on saliva treatment sensor chip (BIAcore)
Conditions in all cases: peptide solution 1 mg/mL in PBS pH7.4
S. sanguis (ATCC10556) = assay type: binding, Streptococcus sanguis
Procedure: (§1) S. sanguis (ATCC10556, ATCC10558), S. mutans (ATCC25175) were used as intraoral bacteria. All bacteria were cultured under an anaerobic conditions using Brain Heart Infusion broth (BHI; Difco Lavoratory, Detroit, Mich.) as a culture medium.
(§2) The specimen was stimulus saliva secreted by biting paraffine wax for 3 minutes by 3 subjects (A, B, C). The saliva was collected, incubated at 4° C. for 5 minutes, and centrifuged at 10000×g for 10 minutes at 4° C. Then, the supernatant was used the saliva specimen.
(§3) The adhesion suppressing properties of bacteria was confirmed by using a sensor chip as a substitute for a tooth. As the sensor chip, Pioneer Sensor Chip F1 (produced by BIAcore Company) was used. The sensor chip F1 was activated at flow speed of […] for 1 minute with 70 μL of 400 mM N-ethyl-N′-(3-diaethylaminoprophyl) carbodiimide and 100 mM N-hydroxy siccinimide solution. Then, the above saliva specimen was diluted 20 times, and bonded on the chip by passing 70 μL of sample over the activated chip. (Hereinafter, this chip was said to as a saliva treatment sensor chip)
(§4) The confirmation method of the adhesion suppressing properties by BIA core™ Biosensor system (produced by BIAcore Company) will be explained. First, each bacteria is passed over the saliva treatment sensor chip at 0.D.=1 (550 nm) and a flow speed of 20 μL/min. Then, the bonding state (Response Unit:RU) between the bacteria and saliva on the surface of the sensor chip was measured. The sensor chip was not carried out the peptide treatment.
(§5) Then, to the other saliva treatment sensor chip, which was different from the saliva treatment sensor chip adhered with bacteria, a modified SSP-5(390–402) peptide solution (1 mg/mL) dissolved with a phosphate buffer solution (PBS, pH7.4) was passed over the sensor chip at flow speed of 10 μL/min, and the surface of the saliva treatment sensor chip was treated with the peptide. Then, each bacteria was passed over the chip at 0.D.=1 (550 nm) and flow speed of 20 μL/min, and the bonding state (Response Unit:RU) between each bacteria and saliva on the sensor surface was measured. The final bacterium adhesion suppressing ratio by the peptide treatment was measured using the following formula 1. Adhesion suppressing ratio=100×{[Bonding state between bacteria and saliva (RU)]−[Bonding state between bacteria and saliva (after the peptide treatment) (RU)]}/[Bonding state between bacteria and saliva (RU)] [Formula 1]

S. sanguis (ATCC10558) = assay type: binding, Streptococcus sanguis
Procedure: as §1, §2, §3, §4, §5

S. mutans (ATCC25175) = assay type: binding, Streptococcus mutans
Procedure: as §1, §2, §3
The confirmation method of the adhesion suppressing properties by BIA core™ Biosensor system (produced by BIAcore Company) will be explained. […] Then, the bonding state (Response Unit:RU) between the bacteria and saliva on the surface of the sensor chip was measured. […]
as §5, with “Adhesion suppressing ratio=100×{[Bonding state between bacteria and saliva (RU)]−[Bonding state between bacteria and saliva (after the peptide treatment) (RU)]}/[Bonding state between bacteria and saliva (RU)] [Formula 1]” left out

With “modified SSP-5(390–402): Modified fragment (390–402) of Streptococcus sanguis surface protein SSP-5; position 400 (residue 11 of SEQ ID NO: 1) is threonine” the “Adhesion suppressing ratio S. sanguis (ATCC10556)” value (S. sanguis (ATCC10556); saliva sample A) was 61%, the “Adhesion suppressing ratio S. sanguis (ATCC10556)” value (S. sanguis (ATCC10556); saliva sample B) was 57% and the “Adhesion suppressing ratio S. sanguis (ATCC10556)” value (S. sanguis (ATCC10556); saliva sample C) was 65%. For the same substance, the “Adhesion suppressing ratio S. sanguis (ATCC10558)” value (S. sanguis (ATCC10558); saliva sample A) was 59%, the “Adhesion suppressing ratio S. sanguis (ATCC10558)” value (S. sanguis (ATCC10558); saliva sample B) was 63% and the “Adhesion suppressing ratio S. sanguis (ATCC10558)” value (S. sanguis (ATCC10558); saliva sample C) was 61%. For the same substance, the “Adhesion suppressing ratio S. mutans (ATCC25175)” value (S. mutans (ATCC25175); saliva sample A) was 55%, the “Adhesion suppressing ratio S. mutans (ATCC25175)” value (S. mutans (ATCC25175); saliva sample B) was 60% and the “Adhesion suppressing ratio S. mutans (ATCC25175)” value (S. mutans (ATCC25175); saliva sample C) was 58%.
